We go through 19 molecules from patent US9657002B2, “Oxindole derivatives carrying an oxetane substituent and use thereof for treating vassopressin-related diseases” (AbbVie Deutschland GmbH & Co. KG, priority 2013, dated 2017).

In experiment [1] the target is T1, human vasopressin V1b receptor (Homo sapiens, UniProt P47901).
T1 sequence (P47901 1-424): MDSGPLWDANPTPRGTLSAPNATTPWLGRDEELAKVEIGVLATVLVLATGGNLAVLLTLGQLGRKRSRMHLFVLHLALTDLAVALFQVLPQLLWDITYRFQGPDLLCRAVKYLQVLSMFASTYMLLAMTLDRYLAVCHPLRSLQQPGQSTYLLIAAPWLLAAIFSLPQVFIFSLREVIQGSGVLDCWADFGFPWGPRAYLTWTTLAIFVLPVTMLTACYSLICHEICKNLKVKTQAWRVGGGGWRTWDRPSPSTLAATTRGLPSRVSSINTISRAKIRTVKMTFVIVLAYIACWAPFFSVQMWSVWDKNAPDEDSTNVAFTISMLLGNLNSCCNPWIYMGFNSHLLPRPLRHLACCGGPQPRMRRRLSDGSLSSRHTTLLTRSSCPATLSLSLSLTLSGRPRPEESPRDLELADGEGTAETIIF
In words: biochemical.

Experiment [2] concerns the target human vasopressin V1a receptor (Homo sapiens, UniProt P37288). The experiment is described as follows: Vasopressin V1a receptor binding assay. As to conditions: selectivity quotient, human V1a vs human V1b.

Each structure is given as a SMILES string.

Broadly, the Ki is the equilibrium dissociation constant of an inhibitor or competing ligand from its target.

human vasopressin V1a receptor, sequence (P37288 whole entry): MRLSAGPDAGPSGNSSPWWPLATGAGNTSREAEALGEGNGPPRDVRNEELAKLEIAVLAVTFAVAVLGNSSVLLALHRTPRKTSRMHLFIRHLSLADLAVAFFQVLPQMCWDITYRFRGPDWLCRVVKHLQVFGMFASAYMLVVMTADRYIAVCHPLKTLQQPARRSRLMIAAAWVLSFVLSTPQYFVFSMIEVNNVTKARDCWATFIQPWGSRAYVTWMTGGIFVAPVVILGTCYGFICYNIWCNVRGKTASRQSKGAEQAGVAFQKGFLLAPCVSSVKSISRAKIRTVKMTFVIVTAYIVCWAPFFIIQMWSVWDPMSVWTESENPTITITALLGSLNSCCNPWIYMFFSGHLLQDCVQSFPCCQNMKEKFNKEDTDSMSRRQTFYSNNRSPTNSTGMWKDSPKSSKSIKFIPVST

On to `COc1ccc(S(=O)(=O)N2C(=O)[C@@](NC(=O)N3CCC(C4CCN(C5COC5)CC4)CC3)(c3cc(OC)ccc3OC)c3cc(C#N)ccc32)c(OC)c1` [Example 55, (S)—N-(5-cyano-3-(2,5-dimethoxyphenyl)-1-((2,4-dimethoxyphenyl)sulfonyl)-2-oxoindolin-3-yl)-1′-(oxetan-3-yl)-[4,4′-bipiperidine]-1-carboxamide], for which the inhibitory constant (Ki) in experiment [1] is less than 1 nM. Further, the “Ki(h-V1a)/Ki(h-V1b)” value in experiment [2] is given as “+ (10-<25)”.

For `COc1ccc(S(=O)(=O)N2C(=O)[C@@](NC(=O)N3CCC(N4CCN(C5COC5)CC4)CC3)(c3cccnc3OC)c3cc(C#N)ccc32)c(OC)c1` [Example 31, N-[(3S)-5-cyano-1-(2,4-dimethoxyphenyl)sulfonyl-3-(2-methoxy-3-pyridyl)-2-oxo-indolin-3-yl]-4-[4-(oxetan-3-yl)piperazin-1-yl]piperidine-1-carboxamide], the Ki in experiment [1] is 10 to 100 nM. Also, in experiment [2], the “Ki(h-V1a)/Ki(h-V1b)” value is “+++ (>75)”.

`COc1ccc(S(=O)(=O)N2C(=O)[C@@](NC(=O)N3CCN(C4CCN(C5COC5)CC4)CC3)(c3cccnc3OC)c3cc(C#N)ccc32)nc1` [Example 29, N-[(3S)-5-cyano-3-(2-methoxy-3-pyridyl)-1-[(5-methoxy-2-pyridyl)sulfonyl]-2-oxo-indolin-3-yl]-4-[1-(oxetan-3-yl)-4-piperidyl]piperazine-1-carboxamide] yielded a Ki in experiment [1] of 1 to 10 nM. Moreover, the “Ki(h-V1a)/Ki(h-V1b)” value in experiment [2] is listed as “+ (10-<25)”.

In the case of `CCOc1ccc(OC)cc1[C@]1(NC(=O)N2CCN(C3CCN(C4COC4)CC3)CC2)C(=O)N(S(=O)(=O)c2ccc(OC)cn2)c2ccc(C#N)cc21` [Example 32, N-[(3S)-5-cyano-3-(2-ethoxy-5-methoxy-phenyl)-1-[(5-methoxy-2-pyridyl)sulfonyl]-2-oxo-indolin-3-yl]-4-[1-(oxetan-3-yl)-4-piperidyl]piperazine-1-carboxamide], the Ki in experiment [1] is 10 to 100 nM. The “Ki(h-V1a)/Ki(h-V1b)” value in experiment [2] is listed as “+++ (>75)”.

In experiment [1], `COc1ccc(S(=O)(=O)N2C(=O)[C@@](NC(=O)N3CCN(C4CCN(C5COC5)CC4)CC3)(c3cc(OC)ccc3OC)c3cc(C#N)ccc32)c(OC)c1` [Example 54, (S)—N-(5-cyano-3-(2,5-dimethoxyphenyl)-1-((2,4-dimethoxyphenyl)sulfonyl)-2-oxoindolin-3-yl)-4-(1-(oxetan-3-yl)piperidin-4-yl)piperazine-1-carboxamide] had a Ki of less than 1 nM. Also, in experiment [2], the “Ki(h-V1a)/Ki(h-V1b)” value is “++ (25-75)”.

Take `CCOc1ncccc1[C@]1(NC(=O)N2CCN(C3CCN(CC4COC4)CC3)CC2)C(=O)N(S(=O)(=O)c2ccc(OC)cc2OC)c2ccc(C#N)cc21` [Example 19, (S)—N-(5-cyano-1-((2,4-dimethoxyphenyl)sulfonyl)-3-(2-ethoxypyridin-3-yl)-2-oxoindolin-3-yl)-4-(1-(oxetan-3-ylmethyl)piperidin-4-yl)piperazine-1-carboxamide]: the Ki in experiment [1] fell in the range of 10 to 100 nM. The “Ki(h-V1a)/Ki(h-V1b)” value in experiment [2] is “+++ (>75)”.

`CCOc1ncccc1[C@]1(NC(=O)N2CC3CC2CN3C2CCN(C3COC3)CC2)C(=O)N(S(=O)(=O)c2ccc(OC)cc2OC)c2ccc(C#N)cc21` (stereo partly drawn) [Example 38, N-[(3S)-5-cyano-1-(2,4-dimethoxyphenyl)sulfonyl-3-(2-ethoxy-3-pyridyl)-2-oxo-indolin-3-yl]-5-[1-(oxetan-3-yl)-4-piperidyl]-2,5-diazabicyclo[2.2.1]heptane-2-carboxamide] displayed a Ki in experiment [1] of 10 to 100 nM. Also, the “Ki(h-V1a)/Ki(h-V1b)” value in experiment [2] was “+++ (>75)”.

For the molecule `CCOc1ncccc1[C@]1(NC(=O)N2CCN(C3CCN(C4COC4)CC3)CC2)C(=O)N(S(=O)(=O)c2ccc(OC)cc2OC)c2cc(F)c(C#N)cc21` [Example 7A, (S)—N-(5-cyano-1-((2,4-dimethoxyphenyl)sulfonyl)-3-(2-ethoxypyridin-3-yl)-6-fluoro-2-oxoindolin-3-yl)-4-(1-(oxetan-3-yl)piperidin-4-yl)piperazine-1-carboxamide], the Ki in experiment [1] is less than 1 nM. Further, the “Ki(h-V1a)/Ki(h-V1b)” value in experiment [2] is recorded as “+++ (>75)”.

On to `COc1ncccc1[C@]1(NC(=O)N2CCC(C3CCN(C4COC4)CC3)CC2)C(=O)N(S(=O)(=O)c2ccc(F)cc2)c2ccc(C#N)cc21` [Example 40, N-[(3S)-5-cyano-1-(4-fluorophenyl)sulfonyl-3-(2-methoxy-3-pyridyl)-2-oxo-indolin-3-yl]-4-[1-(oxetan-3-yl)-4-piperidyl]piperidine-1-carboxamide], for which the Ki in experiment [1] is 1 to 10 nM. Besides, the “Ki(h-V1a)/Ki(h-V1b)” value in experiment [2] is listed as “+ (10-<25)”.

`CCOc1ncccc1[C@]1(NC(=O)N2CCC(C3CCN(C4COC4)CC3)CC2)C(=O)N(S(=O)(=O)c2ccc(OC)cc2OC)c2ccc(C#N)cc21` [Example 11, (S)—N-(5-cyano-1-((2,4-dimethoxyphenyl)sulfonyl)-3-(2-ethoxypyridin-3-yl)-2-oxoindolin-3-yl)-1′-(oxetan-3-yl)-[4,4′-bipiperidine]-1-carboxamide] gave a Ki in experiment [1] of less than 1 nM. Moreover, in experiment [2], the “Ki(h-V1a)/Ki(h-V1b)” value was “+++ (>75)”.

For `COc1cc(C)ccc1S(=O)(=O)N1C(=O)[C@@](NC(=O)N2CCN(C3CCN(C4COC4)CC3)CC2)(c2cccnc2OC)c2cc(C#N)ccc21` [Example 46, N-[(3S)-5-cyano-1-(2-methoxy-4-methyl-phenyl)sulfonyl-3-(2-methoxy-3-pyridyl)-2-oxo-indolin-3-yl]-4-[1-(oxetan-3-yl)-4-piperidyl]piperazine-1-carboxamide], the Ki in experiment [1] was in the range of 10 to 100 nM. Also, the “Ki(h-V1a)/Ki(h-V1b)” value in experiment [2] is “+++ (>75)”.

The molecule `COc1ccc(S(=O)(=O)N2C(=O)[C@@](NC(=O)N3CCC(C4CCN(C5COC5)CC4)CC3)(c3cccnc3OC)c3cc(C#N)ccc32)cc1` [Example 36, N-[(3S)-5-cyano-1-(4-methoxyphenyl)sulfonyl-3-(2-methoxy-3-pyridyl)-2-oxo-indolin-3-yl]-4-[1-(oxetan-3-yl)-4-piperidyl]piperidine-1-carboxamide] showed a Ki in experiment [1] of 1 to 10 nM. Further, the “Ki(h-V1a)/Ki(h-V1b)” value in experiment [2] is reported as “+++ (>75)”.

Regarding `COc1ncccc1[C@]1(NC(=O)N2CCN(C3CCN(C4COC4)CC3)CC2)C(=O)N(S(=O)(=O)c2ccc(C#N)cc2)c2ccc(C#N)cc21` [Example 43, N-[(3S)-5-cyano-1-(4-cyanophenyl)sulfonyl-3-(2-methoxy-3-pyridyl)-2-oxo-indolin-3-yl]-4-[1-(oxetan-3-yl)-4-piperidyl]piperazine-1-carboxamide], the Ki in experiment [1] lay in the range of 10 to 100 nM. In addition, in experiment [2], the “Ki(h-V1a)/Ki(h-V1b)” value was “+ (10-<25)”.

Turning to `CCOc1ccc(OC)cc1[C@]1(NC(=O)N2CCN(C3CCN(C4COC4)CC3)CC2)C(=O)N(S(=O)(=O)c2ccc(F)cc2OC)c2ccc(C#N)cc21` [Example 35, N-[(3S)-5-cyano-3-(2-ethoxy-5-methoxy-phenyl)-1-(4-fluoro-2-methoxy-phenyl)sulfonyl-2-oxo-indolin-3-yl]-4-[1-(oxetan-3-yl)-4-piperidyl]piperazine-1-carboxamide], in experiment [1], the Ki lay in the range of 1 to 10 nM. In addition, in experiment [2], the “Ki(h-V1a)/Ki(h-V1b)” value was “+++ (>75)”.

Turning to `COc1ccc(S(=O)(=O)N2C(=O)[C@@](NC(=O)N3CCN(C4CCN(C5COC5)CC4)CC3)(c3cccnc3OC)c3cc(C#N)ccc32)cc1` [Example 34, N-[(3S)-5-cyano-1-(4-methoxyphenyl)sulfonyl-3-(2-methoxy-3-pyridyl)-2-oxo-indolin-3-yl]-4-[1-(oxetan-3-yl)-4-piperidyl]piperazine-1-carboxamide], the Ki in experiment [1] fell in the range of 10 to 100 nM. In addition, the “Ki(h-V1a)/Ki(h-V1b)” value in experiment [2] is on record as “++ (25-75)”.

Molecule `CCOc1ncccc1[C@]1(NC(=O)N2CCN(C3CCN(C4COC4)CC3)CC2)C(=O)N(S(=O)(=O)c2ccc(F)cc2)c2ccc(C#N)cc21` [Example 28, N-[(3S)-5-cyano-3-(2-ethoxy-3-pyridyl)-1-(4-fluorophenyl)sulfonyl-2-oxo-indolin-3-yl]-4-[1-(oxetan-3-yl)-4-piperidyl]piperazine-1-carboxamide] had a Ki in experiment [1] of 10 to 100 nM. For the same molecule, the “Ki(h-V1a)/Ki(h-V1b)” value in experiment [2] is “+++ (>75)”.

Regarding `COc1ncccc1[C@]1(NC(=O)N2CCN(C3CCN(C4COC4)CC3)CC2)C(=O)N(S(=O)(=O)c2ccc(C#N)cc2F)c2ccc(C#N)cc21` [Example 47, N-[(3S)-5-cyano-1-(4-cyano-2-fluoro-phenyl)sulfonyl-3-(2-methoxy-3-pyridyl)-2-oxo-indolin-3-yl]-4-[1-(oxetan-3-yl)-4-piperidyl]piperazine-1-carboxamide], the Ki in experiment [1] was in the range of 10 to 100 nM. For the same molecule, the “Ki(h-V1a)/Ki(h-V1b)” value in experiment [2] was “++ (25-75)”.

On to `CCOc1ncccc1[C@]1(NC(=O)N2CCN(C3CCN(C4COC4)CC3)CC2)C(=O)N(S(=O)(=O)c2ccc(F)cc2OC)c2ccc(C#N)cc21` [Example 26, N-[(3S)-5-cyano-3-(2-ethoxy-3-pyridyl)-1-(4-fluoro-2-methoxy-phenyl)sulfonyl-2-oxo-indolin-3-yl]-4-[1-(oxetan-3-yl)-4-piperidyl]piperazine-1-carboxamide], for which the Ki in experiment [1] was in the range of 1 to 10 nM. Also, in experiment [2], the “Ki(h-V1a)/Ki(h-V1b)” value is listed as “+++ (>75)”.

The molecule `COc1ccccc1S(=O)(=O)N1C(=O)[C@@](NC(=O)N2CCC(C3CCN(C4COC4)CC3)CC2)(c2cccnc2OC)c2cc(C#N)ccc21` [Example 49, (S)—N-(5-cyano-1-((2-methoxyphenyl)sulfonyl)-3-(2-methoxypyridin-3-yl)-2-oxoindolin-3-yl)-1′-(oxetan-3-yl)-[4,4′-bipiperidine]-1-carboxamide] displayed a Ki in experiment [1] of 1 to 10 nM. For the same molecule, in experiment [2], the “Ki(h-V1a)/Ki(h-V1b)” value is “+++ (>75)”.
